In ChEMBL document CHEMBL3425448, “Synthesis of hydrolysis-resistant pyridoxal 5'-phosphate analogs and their biochemical and X-ray crystallographic characterization with the pyridoxal phosphatase chronophin” (Bioorg Med Chem, 2015) one finds IC50 data, which are given here for 4 compounds.

The assay concerns the target T1, Chronophin (Mus musculus, UniProt P60487).
T1 sequence (P60487 whole entry): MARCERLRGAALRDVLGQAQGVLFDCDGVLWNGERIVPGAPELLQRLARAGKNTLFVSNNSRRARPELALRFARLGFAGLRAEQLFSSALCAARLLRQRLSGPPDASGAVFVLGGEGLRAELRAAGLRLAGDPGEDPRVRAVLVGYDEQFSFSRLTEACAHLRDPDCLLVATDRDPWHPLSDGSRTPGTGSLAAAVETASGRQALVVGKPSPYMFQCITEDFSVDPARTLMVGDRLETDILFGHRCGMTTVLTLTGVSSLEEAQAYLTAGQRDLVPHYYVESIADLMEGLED
As to the kind of experiment: Inhibition of recombinant mouse brain PDXP expressed in Escherichia coli BL21 (DE3) cells assessed as pyridoxal 5' phosphate dephosphorylation preincubated for 4 mins followed by substrate addition measured after 5 mins.

Regarding `Cc1ncc(/C=C/P(=O)(O)O)c(C=O)c1O`, the IC50 turned out to be 246 µM.
For `Cc1ncc(CCP(=O)(O)O)c(C=O)c1O` the value was 79 µM.
Then `Cc1ncc(/C=C/P(=O)(O)O)c(CO)c1O`, with 1300 µM; and `Cc1ncc(CCP(=O)(O)O)c(CO)c1O`, with 1300 µM.

The term IC50 denotes the concentration that gives 50% inhibition.
